Results on eleven molecules are retold here after US12263163B2 (Kronos Bio, Inc., priority 2013, dated 2025).

This data set has as its system human hepatocytes. The data set can be described thus: Human Hepatocyte Stability Assay (predicted hepatocyte clearance). In kind it is in vitro ADME. Conditions: comparison table with known Syk inhibitors, head prints (units). As to the method: The human […] stability of the compounds as predicted hepatocyte clearance in L/hr/kg was assessed. Compounds to be tested were diluted to 200 μM (4 μl of 10 mM DMSO stock into 196 μl ACN:H2O (50:50). Propranolol was used as a positive control, and buffer only without hepatocytes as 0% control. These were further diluted 4 μl with 891 μl KHB buffer (InVitroGRO catalog number Z99074) to provide 2× dosing solution. To each well of 24 well plate, 250 μl of the 2× dosing solution was added to each well with 250 μl of hepatocytes cells (1×10^6 viable cells/ml per well) or KHB for control samples to achieve a final compound concentration of 1 μM during incubation. The final solvent concentration was 0.01% DMSO and 0.25% ACN. The culture plate was placed on a rocker and incubated at 37° C., 5% CO2. Samples were collected at time 0, 1, 3, and 6 hours. The loss of parent compound was determined using LC-MS methods against a standard curve.
As for `COc1ccc(Nc2nc(-c3ccc(N)nc3)cn3ccnc23)cc1OC` [6-(6-aminopyridin-3-yl)-N-(3,4-dimethoxyphenyl)imidazo[1,2-a]pyrazin-8-amine, reference compound], the “Hheps CL” value is 15 mL/min/kg.
The same measure for `Nc1cncc(-c2cn3ccnc3c(Nc3ccc(N4CCN(CC(CO)CO)CC4)cc3)n2)n1` [Ex.-6, 2-((4-(4-((6-(6-aminopyrazin-2-yl)imidazo[1,2-a]pyrazin-8-yl)amino)phenyl)piperazin-1-yl)methyl)propane-1,3-diol]: 1.3 mL/min/kg; for `Nc1cncc(-c2cn3ccnc3c(Nc3ccc(N4CCOCC4)cc3)n2)c1` [6-(5-aminopyridin-3-yl)-N-(4-morpholinophenyl)imidazo[1,2-a]pyrazin-8-amine, reference compound]: 11.3 mL/min/kg.
The same measure for `COc1ccc(Nc2nc(-c3cccc(N)c3)cn3ccnc23)cc1OC` [6-(3-aminophenyl)-N-(3,4-dimethoxyphenyl)imidazo[1,2-a]pyrazin-8-amine, reference compound]: 4 mL/min/kg.
The same measure for `Nc1cncc(-c2cn3ccnc3c(Nc3ccc(N4CCO[C@@H](CO)C4)cc3)n2)n1` [Ex.-3, (R)-(4-(4-((6-(6-aminopyrazin-2-yl)imidazo[1,2-a]pyrazin-8-yl)amino)phenyl)morpholin-2-yl)methanol]: 1.5 mL/min/kg; for `Cc1ncc(-c2cn3ccnc3c(Nc3ccc(N4CCN(C5COC5)CC4)cc3)n2)nc1N` [Ex.-1, 6-(6-amino-5-methylpyrazin-2-yl)-N-(4-(4-(oxetan-3-yl)piperazin-1-yl)phenyl)imidazo[1,2-a]pyrazin-8-amine]: 2 mL/min/kg.
As for `Cc1ncc(-c2cn3ccnc3c(Nc3ccc(N4CCN(C5COC5)CC4)c(OCCO)c3)n2)nc1N` [Ex.-7, 2-(5-((6-(6-amino-5-methylpyrazin-2-yl)imidazo[1,2-a]pyrazin-8-yl)amino)-2-(4-(oxetan-3-yl)piperazin-1-yl)phenoxy)ethanol], the “Hheps CL” value was 0.83 mL/min/kg.
The same measure for `Cc1ncc(-c2cn3ccnc3c(Nc3ccc(N4CCOCC4)cc3)n2)cc1N` [6-(5-amino-6-methylpyridin-3-yl)-N-(4-morpholinophenyl)imidazo[1,2-a]pyrazin-8-amine, reference compound]: 13.3 mL/min/kg.
The same measure for `Nc1cncc(-c2cn3ccnc3c(Nc3ccc(N4CCN(C5COC5)CC4)cc3)n2)n1` [Ex.-2, 6-(6-aminopyrazin-2-yl)-N-(4-(4-(oxetan-3-yl)piperazin-1-yl)phenyl)imidazo[1,2-a]pyrazin-8-amine]: 0.917 mL/min/kg; for `Nc1cncc(-c2cn3ccnc3c(Nc3ccc(N4CCN(C5COC5)CC4)c(OCCO)c3)n2)n1` [Ex.-5, 2-(5-((6-(6-aminopyrazin-2-yl)imidazo[1,2-a]pyrazin-8-yl)amino)-2-(4-(oxetan-3-yl)piperazin-1-yl)phenoxy)ethanol]: 1.2 mL/min/kg; for `Cc1c(-c2cncc(N)n2)nc(Nc2ccc(N3CCN(C4COC4)CC3)cc2)c2nccn12` [Ex.-4, 6-(6-aminopyrazin-2-yl)-5-methyl-N-(4-(4-(oxetan-3-yl)piperazin-1-yl)phenyl)imidazo[1,2-a]pyrazin-8-amine]: 1.3 mL/min/kg.
